Experimental data from paper PMC9131275, “Drug-induced self-assembled nanovesicles for doxorubicin resistance reversal via autophagy inhibition and delivery synchronism” (Theranostics, 2022).
Structures can show the parent of a compound that is named as a salt. Where two headings read alike, the source gives them in different places.

How the values were obtained:
K562 cells = experiment: Cytotoxicity by CCK-8 kit, 48 h; format: cell-based; conditions: Homo sapiens
Procedure: (§1) The cytotoxicity of free DOX·HCl, free CQ, physical mixture of free DOX·HCl and CQ (DC), physical mixture of PPAP and cholesteryl hemisuccinate (PPAP/C) and drug-loaded nanovesicles on MCF-7 cells, MCF-7/ADR cells, K562 cells or K562/ADR cells was investigated at 48 h via CCK-8 kit. Accordingly, the reversal index (RI) of DOX·HCl for MCF-7/ADR cells and K562/ADR cells was calculated using the following formula: RI = […]. The combination index (CI) between DOX⋅HCl and CQ at different ratios was calculated as follows: CI = D1/(Dm)1 + D2/(Dm)2 + D1*D2/(Dm)1*(Dm)2, where D1 and (Dm)1 represent the IC50 values of DOX⋅HCl applied in combination or alone, respectively, and D2 and (Dm)2 represent the IC50 values of CQ applied in combination or alone, respectively. In addition, apoptosis analysis was implemented using the Annexin V-FITC/PI kit (LianKe, China) based on the kit instructions. The details were provided by Supplementary Material (Supplementary section 1). […]
(§2) Cytotoxicity and annexin V-FITC/PI apoptosis assay
(§3) To investigate the cytotoxicity of free DOX·HCl, free CQ, physical mixture of free DOX·HCl and CQ, PPAP/C and drug-loaded nanovesicles, various cell lines (MCF-7, […]
(§4) cells/well, respectively, and cultured in RPMI 1640 containing 10 % fetal bovine serum […]
(§5) at 37 °C with 5 % CO2. After 24 h, cells were exposed to increasing concentrations of different formulations for 48 h. Then, 10 µL of CCK-8 reagent was added to each well and the plates were incubated for 2 h. And the absorbency was determined by a microplate reader (Thermo, USA) at 450 nm. […]
(§6) Afterwards, rhodamine 123 (2 µg/mL) was incubated with these cells for 30 […]
(§7) minutes at 37°C . […]
(§8) 104 cells was collected for each sample at the appropriate period.

MCF-7 cells = experiment: Cytotoxicity by CCK-8 kit, 48 h; format: cell-based; conditions: Homo sapiens
Procedure: as §1, §2, §3, §4, §5, §6, §7, §8

MCF-7/ADR cells [1] = experiment: Annexin V-FITC/PI apoptosis assay; format: cell-based, human; conditions: 5 μg/mL DOX·HCl and/or 10 µg/mL CQ, 48 h
K562/ADR cells [2] = experiment: Annexin V-FITC/PI apoptosis assay; format: cell-based, human; conditions: 5 μg/mL DOX·HCl and/or 10 µg/mL CQ, 48 h
P-gp = target: T1, P-gp (Homo sapiens, UniProt P08183); experiment: P-gp functional activity (rhodamine 123 accumulation, flow cytometry); format: cell-based; conditions: MCF-7/ADR and K562/ADR cells, increasing CQ concentrations
T1 construct: the extremely high expression of P-gp existed in MCF-7/ADR cells and K562/ADR cells; host or cells: MCF-7/ADR and K562/ADR cells
T1 sequence (P08183 whole entry): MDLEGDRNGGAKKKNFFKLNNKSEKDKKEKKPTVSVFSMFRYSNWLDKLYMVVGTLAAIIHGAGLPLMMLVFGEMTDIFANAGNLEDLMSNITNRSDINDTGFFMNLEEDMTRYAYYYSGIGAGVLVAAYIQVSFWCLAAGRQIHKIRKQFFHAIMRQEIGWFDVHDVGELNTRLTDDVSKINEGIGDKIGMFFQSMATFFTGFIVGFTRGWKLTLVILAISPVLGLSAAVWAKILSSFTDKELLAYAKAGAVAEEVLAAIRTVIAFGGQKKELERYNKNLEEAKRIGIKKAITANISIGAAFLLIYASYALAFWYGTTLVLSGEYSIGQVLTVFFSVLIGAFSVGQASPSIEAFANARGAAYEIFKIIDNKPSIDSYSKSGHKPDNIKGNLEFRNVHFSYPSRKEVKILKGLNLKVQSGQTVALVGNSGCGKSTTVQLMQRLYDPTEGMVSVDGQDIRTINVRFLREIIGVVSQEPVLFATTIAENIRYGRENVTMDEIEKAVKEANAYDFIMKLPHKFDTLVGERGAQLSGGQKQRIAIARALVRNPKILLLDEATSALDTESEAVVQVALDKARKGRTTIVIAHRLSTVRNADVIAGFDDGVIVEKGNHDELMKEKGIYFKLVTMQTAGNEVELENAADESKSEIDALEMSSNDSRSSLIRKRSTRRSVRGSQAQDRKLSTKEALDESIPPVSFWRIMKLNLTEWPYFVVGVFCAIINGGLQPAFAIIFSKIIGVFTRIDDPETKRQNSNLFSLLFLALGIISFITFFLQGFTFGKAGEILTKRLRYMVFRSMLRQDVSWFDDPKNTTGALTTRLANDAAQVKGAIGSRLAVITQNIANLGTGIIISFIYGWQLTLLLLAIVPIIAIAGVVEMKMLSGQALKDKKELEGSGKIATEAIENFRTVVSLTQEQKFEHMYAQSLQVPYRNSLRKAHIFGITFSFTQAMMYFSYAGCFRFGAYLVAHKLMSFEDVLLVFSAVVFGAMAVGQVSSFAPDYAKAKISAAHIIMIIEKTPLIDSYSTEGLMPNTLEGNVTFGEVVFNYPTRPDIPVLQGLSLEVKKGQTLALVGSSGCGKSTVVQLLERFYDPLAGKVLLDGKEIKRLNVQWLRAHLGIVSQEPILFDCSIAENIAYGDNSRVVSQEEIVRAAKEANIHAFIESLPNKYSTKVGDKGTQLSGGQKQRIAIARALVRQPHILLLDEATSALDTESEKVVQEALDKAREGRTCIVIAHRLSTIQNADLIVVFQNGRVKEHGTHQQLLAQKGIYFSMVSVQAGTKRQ
Procedure: as §5, with “nm. Data are reported as means of triplicate” for “nm.”
The apoptosis analysis was further investigated. Briefly, MCF-7/ADR or K562/MDR cells (2 × 10^5 cells/well) were seeded in 12-well plates and incubated overnight in RPMI 1640 containing 10 % fetal bovine serum. Afterwards, the cells were incubated with various formulations for 48 h at the final DOX·HCl and CQ concentration of 5 and 10 µg/mL, respectively. The cells were treated according to the kit instructions and analyzed by flow cytometry.
P-gp functional activity evaluation
Flow cytometry analysis was used to investigate the effect of CQ on the functional activity of P-gp through monitoring the intracellular uptake of rhodamine 123, namely, a kind of P-gp substrate. Specifically, MCF-7/ADR cells and K562/ADR cells (2 × 10^5 cells/well) were seeded in 12-well plates, respectively. […] Then the cell suspension was analyzed by flow cytometry with the 488 nm argon ion laser. Also, the individual fluorescence of 104 cells was collected for each sample at the appropriate period.

[3] = ref [20], [21]; cited from earlier work
MCF-7/ADR cells [4] = experiment: Cytotoxicity by CCK-8 kit, 48 h; format: cell-based, human
Procedure: (§10) Accordingly, the reversal index (RI) of DOX·HCl for MCF-7/ADR cells and K562/ADR cells was calculated using the following formula: RI = IC50 of the test formulation / IC50 of free DOX·HCl.
(§11) at 37 °C with 5 % CO2. After 24 h, cells were exposed to increasing concentrations of different formulations for 48 h. Then, 10 µL of CCK-8 reagent was added to each well and the plates were incubated for 2 h. And the absorbency was determined by a microplate reader (Thermo, USA) at 450 nm. Data are reported as means of triplicate

K562/ADR cells [5] = experiment: Cytotoxicity by CCK-8 kit, 48 h; format: cell-based, human
Procedure: as §10, §11

K562/ADR tumors = experiment: In vivo anti-tumor activity; design: species or system BALB/c nude mice; conditions: K562/ADR tumor-bearing nude mice, i.v. at 0, 2, 4 and 6 days, Day 16
Procedure: (§9) The BALB/c nude mice were subcutaneously inoculated with K562/ADR cells (2×10^7 cells) on the right flank to construct K562/ADR tumor-bearing mice models. After 10 days, mice were randomly divided into seven groups (n = 5) once the tumors reached about 80 mm^3. And then various formulations were injected intravenously through the tail vein every other day for four times and saline was taken as the control group. […] Later, the mice were sacrificed and the tumors were excised and weighted. In addition, tumors and major organs (heart, liver, spleen, lung, and kidney) were collected for slice analysis by hematoxylin and eosin (H&E) staining. The tumors were also analyzed by immunohistochemical detection of Ki67, immunofluorescence assay of LC3 and terminal deoxynucleotidyl transferased dUTP nick end labeling (TUNEL) assay.

[6] = mouse, in vivo
Procedure: as §9

Row | effect on efflux activity of P-gp (rhodamine 123 accumulation) (P-gp) | SMILES | IC50 (K562 cells; K562, 48 h) | IC50 (MCF-7 cells; MCF7, 48 h) | Apoptosis rate (MCF-7/ADR cells [1]) | Apoptosis rate (K562/ADR cells [2]) | plasma protein binding rate [3] | IC50 (MCF-7/ADR cells [4]; Homo sapiens, NCI/ADR-RES, MCF-7/ADR cells, 48 h, read-out: IC50 of DOX·HCl) | DOX·HCl-resistance index (MCF-7/ADR cells [4]; MCF-7/ADR cells vs sensitive cells) | IC50 (K562/ADR cells [5]; Homo sapiens, K562/ADR cells, 48 h, read-out: IC50 of DOX·HCl) | DOX·HCl-resistance index (K562/ADR cells [5]; K562/ADR cells vs sensitive cells) | IC50 (K562 cells; K562 cells, within 48 h, read-out: IC50) | IC50 (MCF-7 cells; MCF7, MCF-7 cells, within 48 h, read-out: IC50) | tumor inhibition rate (TIR) (K562/ADR tumors) | body weight change during treatment [6] | histopathological abnormalities of hearts (H&E) [6]
1 | can inhibit the efflux activity of P-gp | CCN(CC)CCCC(C)Nc1ccnc2cc(Cl)ccc12 (centres unmarked) [CQ, Chloroquine] | 17.4 ± 1.34 µg/mL | 23.9 ± 0.42 µg/mL | 33.64% | 40.17% | 60% | – | – | – | – | – | – | – | – | –
2 | – | COc1cccc2c1C(=O)c1c(O)c3c(c(O)c1C2=O)C[C@@](O)(C(=O)CO)C[C@@H]3O[C@H]1C[C@H](N)[C@H](O)[C@H](C)O1 [DOX·HCl, Doxorubicin hydrochloride] | – | – | 40.83% | 42.56% | – | 72.1 µg/mL | 902 fold | 18.9 µg/mL | 126 fold | 0.15 ± 0.06 µg/mL | 0.08 ± 0.01 µg/mL | 28.80% | sharp decrease in body weight | severe histopathological abnormalities and lesions in the cardiac muscles
